Where a name gives a salt, the structure may show the parent alone.
Tested on: 293T-HRE-GFP-luc cells
Test: Cell-Based Reporter Assay for IC50 Determinations
Settings: 30 min normoxia then 6 hrs hypoxia (1% O2), luminescence, four-parameter logistic fit, read-out: Activity (IC50, HRE luciferase reporter)
Protocol: Cell-Based Reporter Assay for IC50 Determinations
293T-HRE-GFP-luc cells were routinely maintained in DMEM media (high glucose version with GlutaMAX and HEPES, Gibco, catalog #10564) supplemented with 10% fetal bovine serum and 2 μg/mL puromycin (Invitrogen, catalog #A11138-03) using a humidified incubator (normoxia conditions consisting of 37° C., 5% CO2 and ambient O2).
In preparation for the reporter assay, cells were harvested and resuspended in DMEM media (high glucose version with GlutaMAX and HEPES) supplemented with 10% fetal bovine serum. Cells were inoculated into 384-well white Culturplates (Perkin Elmer catalog #6007680) at a density of 12,000 cells/well in a volume of […]. The microplates were incubated overnight (approximately 17-19 hours) at 37° C. with 5% CO2 and ambient O2. Stock solutions of the test compounds were prepared in DMSO (Sigma, Catalog #D2650) and serially diluted 1:3 using DMSO. Compounds were additionally diluted (1:50) with culturemedium and 10 µL were added per well to the Culturplate. Following a 30 min. incubation under normoxia conditions, the plates were incubated in hypoxia for 6 hrs. (37° C., 5% CO2 and 1% O2). Steadylite Plus (Perkin Elmer, catalog #6016751) was then added ([…]), the plates were mixed on an orbital shaker at room temperature in the dark for 15 min., and luminescence was measured using an Envision plate reader (Perkin Elmer). IC50 values were calculated using a four-parameter logistic curve fit. Results are shown below in Table 2; ND indicates no data.

**Q.** `Cc1nc(-c2nc(-c3ccc(OC(F)(F)F)cc3)no2)oc1Cc1cccc(Br)c1` [Example 1, 5-(5-(3-Bromobenzyl)-4-methyloxazol-2-yl)-3-(4-(trifluoromethoxy)phenyl)-1,2,4-oxadiazole] was tested. Which IC50 did it give?
**A.** 1000 to 10000 nM

**Q.** For `Cc1nc(-c2nc(-c3ccc(OC(F)(F)F)cc3)no2)sc1Cc1cccc(N2CCN(C)CC2)c1` [Example 2, 5-(4-Methyl-5-(3-(4-methylpiperazin-1-yl)benzyl)thiazol-2-yl)-3-(4-(trifluoromethoxy)phenyl)-1,2,4-oxadiazole], which IC50 is on record?
**A.** < 100 nM

**Q.** `Cc1nc(-c2nc(-c3ccccc3)co2)sc1Cc1cccc(N2CCN(C)CC2)c1` [Example 3, 2-(4-Methyl-5-(3-(4-methylpiperazin-1-yl)benzyl)thiazol-2-yl)-4-phenyloxazole] was tested. Which IC50 did it give?
**A.** 1000 to 10000 nM

**Q.** How did the IC50 turn out when `Cc1oc(-c2nc(-c3ccc(OC(F)(F)F)cc3)no2)nc1Cc1cccc(Br)c1` [Example 4, 5-(4-(3-Bromobenzyl)-5-methyloxazol-2-yl)-3-(4-(trifluoromethoxy)phenyl)-1,2,4-oxadiazole] was run?
**A.** 1000 to 10000 nM

**Q.** For `Cc1oc(-c2nc(-c3ccc(OC(F)(F)F)cc3)no2)nc1Cc1cccc(N2CCN(C)CC2)c1` [Example 5, 1-methyl-4-(3-((5-methyl-2-(3-(4-(trifluoromethoxy)phenyl)-1,2,4-oxadiazol-5-yl)oxazol-4-yl)methyl)phenyl)piperazin-1-ium trifluoroacetate], which IC50 is on record?
**A.** < 100 nM

**Q.** For `Cc1sc(-c2nc(-c3ccc(OC(F)(F)F)cc3)no2)nc1Cc1cccc(N2CCN(C)CC2)c1` [Example 6, 1-methyl-4-(3-((5-methyl-2-(3-(4-(trifluoromethoxy)phenyl)-1,2,4-oxadiazol-5-yl)thiazol-4-yl)methyl)phenyl)piperazin-1-ium trifluoroacetate], which IC50 is on record?
**A.** < 100 nM

**Q.** With `Cc1nc(-c2nc(-c3ccc(OC(F)(F)F)cc3)no2)oc1Cc1cccc(N2CCN(C)CC2)c1` [Example 7, 1-Methyl-4-(3-((4-methyl-2-(3-(4-(trifluoromethoxy)phenyl)-1,2,4-oxadiazol-5-yl)oxazol-5-yl)methyl)phenyl)piperazin-1-ium trifluoroacetate] as the compound, how does the IC50 read?
**A.** < 100 nM

**Q.** How did the IC50 turn out when `Cn1nc(-c2nc(-c3ccc(OC(F)(F)F)cc3)no2)nc1Cc1ccnc(N2CCNCC2)c1` [Example 8, 4-(4-((1-Methyl-3-(3-(4-(trifluoromethoxy)phenyl)-1,2,4-oxadiazol-5-yl)-1H-1,2,4-triazol-5-yl)methyl)pyridin-2-yl)piperazin-1-ium formate] was run?
**A.** < 100 nM

**Q.** Which IC50 does the source give for `CN1CCN(c2cc(Cc3nc(-c4nc(-c5ccc(OC(F)(F)F)cc5)no4)nn3C)ccn2)CC1` [Example 9, 1-Methyl-4-(4-((1-methyl-3-(3-(4-(trifluoromethoxy)phenyl)-1,2,4-oxadiazol-5-yl)-1H-1,2,4-triazol-5-yl)methyl)pyridin-2-yl)piperazin-1-ium formate] here?
**A.** < 100 nM

**Q.** Which IC50 does the source give for `CN1CCN(c2cc(Cc3nc(-c4nc(-c5ccc(OC(F)(F)F)cc5)no4)cn3C)ccn2)CC1` [Example 10, 5-(1-Methyl-2-((2-(4-methylpiperazin-1-yl)pyridin-4-yl)methyl)-1H-imidazol-4-yl)-3-(4-(trifluoromethoxy)phenyl)-1,2,4-oxadiazole] here?
**A.** < 100 nM

**Q.** For `Cc1oc(-c2nc(-c3ccc(OC(F)(F)F)cc3)no2)nc1Cc1cccc(N2CCOCC2)c1` [Example 11, 4-(3-((5-Methyl-2-(3-(4-(trifluoromethoxy)phenyl)-1,2,4-oxadiazol-5-yl)oxazol-4-yl)methyl)phenyl)morpholine], which IC50 is on record?
**A.** < 100 nM

**Q.** Which IC50 does the source give for `Cn1cc(-c2nc(-c3ccc(OC(F)(F)F)cc3)no2)nc1Cc1ccnc(N2CCNCC2)c1` [Example 12, 4-(4-((1-methyl-4-(3-(4-(trifluoro-methoxy)phenyl)-1,2,4-oxadiazol-5-yl)-1H-imidazol-2-yl)methyl)pyridin-2-yl)piperazin-1-ium formate] here?
**A.** 1000 to 10000 nM

**Q.** Which IC50 does the source give for `Cc1oc(-c2nc(-c3ccc(OC(F)(F)F)cc3)no2)nc1Cc1cccc(N2CCCCC2)c1` [Example 13] here?
**A.** < 100 nM

**Q.** Which IC50 does the source give for `Cc1oc(-c2nc(-c3ccc(OC(F)(F)F)cc3)no2)nc1Cc1cccc(N(C)C)c1` [Example 14, N,N-dimethyl-3-((5-methyl-2-(3-(4-(trifluoromethoxy)phenyl)-1,2,4-oxadiazol-5-yl)oxazol-4-yl)methyl)aniline] here?
**A.** < 100 nM

From US9115120B2, “Heterocyclic modulators of HIF activity for treatment of disease” (Board of Regents, The University of Texas System, priority 2012, dated 2015)
